Literature values in US7858126B2 (Trinity Laboratories Inc., priority 2006, dated 2010).

Key:
[1] = test system: ornithine decarboxylase (ODC); settings: mice
skin papillomas = settings: mice, DMBA-initiated, TPA-promoted

Substance: santalol
- decrease of TPA-induced ODC activity [1]: 70%
- decrease of papilloma incidence (skin papillomas): 67%
- decrease of papilloma multiplicity (skin papillomas): 96%
